Patent US8835489B2, “Compounds of the pterocarpanquinone family, method for preparing the same, pharmaceutical composition containing the new compounds of the pterocarpanquinone family, uses and therapeutic method” (Universidade Federal Do Rio de Janeiro, priority 2008, dated 2014)

Key:
TNF-α release by PBMC = assay: LPS-stimulated release of TNF-α by PBMC in vitro; assay type: cell-based, human; details: FIG. 3, p<0.05
Experimental: Mononuclear cells were obtained from peripheral blood of healthy donors by gradient centrifugation in Ficoll. 20 ml peripheral blood were carefully added to 16 mL of Ficoll followed by centrifugation at 1500×g for 30 minutes. Once collected, the PBMC were washed twice with saline and resuspended in culture field RPMI 1640 containing 0.1 mg streptomycin/mL, penicillin 100 U/mL and supplemented with 10% of FCS. The PBMC resuspended in RPMI were seeded in 24-well plate (8×10^5 cells/well). The cells were incubated with LPS at a concentration of 2 μg/mL at 37° C. in 4% CO2 for 2 hours. After incubation with LPS, the supernatant was collected and centrifuged at 14,000×g for 1 minute to rule out any possible cell. The supernatant was stored at −20° C. for subsequent cytokine. […] A group of cells received only the vehicle.

neutrophils in LBA = assay: LPS inhalation in mice, neutrophils in bronchoalveolar lavage; details: in vivo, FIG. 4, p<0.05 compared to vehicle group
Experimental: For inhalation of LPS, we used a glass inhalation chamber with a volume of 1 liter, with a capacity of 8 mice. The mice were placed in this chamber for five minutes and inhaled aerosols produced by positive pressure of 2 mL of a suspension of LPS containing 0.5 mg/mL, prepared in physiological saline (NaCl 0.9%). The control group inhaled saline only. Groups of animals were treated with LQB dissolved in physiological saline with 10% ethanol (vehicle) at doses of 1, 10 and 100 mg/kg. The substances were administered in a volume of 200 μL intraperitoneal (ip) 1 hour before LPS inhalation. In parallel, groups of animals were treated with 200 μL of the vehicle. Three hours after inhalation of LPS, animals were sacrificed by cervical dislocation, their tracheas were exposed, cannulated and lungs were washed with saline to a final volume of 1.5 mL in tubes kept at 4° C. […] An aliquot of 300 μL of lavage was used to count and identify the cells and the remainder was centrifuged at 1,500×g for 10 minutes (Sorvall, USA). […] The total number of cells was determined in a cell counter type Coulter Counter (Coulter Electronics Inc.—USA). The identification of different cell types present in BAL cytospin was made after 200 μl of LBA at 80×g for 1 minute (Shandon—USA). The slides prepared from cytospin stained with Diff-Quick kit (Shandon, USA). We counted approximately 200 cells on each slide. […]

`O=C1C2=C(C(=O)c3ccccc31)[C@H]1Oc3ccccc3[C@H]1CO2` [LQB1] was tested, and the “release of TNF-α by PBMC” value (TNF-α release by PBMC) was “inhibiting release of TNF-α” and the “release of neutrophils in LBA” value (neutrophils in LBA) was “inhibiting the release of neutrophils”.
